Our source for the MIC and Ratio values is ChEMBL document CHEMBL4393657, “Tetrazole hybrids and their antifungal activities” (2019).

Common to all, as to format: functional
For assay [1], the system named is Aspergillus niger. Put plainly: Antifungal activity against Aspergillus niger assessed as reduction in fungal cell growth incubated for 48 hrs by broth microdilution method.
Assay [2] relates to Candida albicans. Nature of the assay: Antifungal activity against Candida albicans assessed as reduction in fungal cell growth incubated for 48 hrs by broth microdilution method.
Assay [3] deals with Nakaseomyces glabratus. Put plainly: Antifungal activity against Candida glabrata assessed as reduction in fungal cell growth incubated for 24 hrs by broth microdilution method. Background: In broth dilution the organism is exposed to a series of concentrations in liquid medium.
Assay [4] deals with Pichia kudriavzevii. Nature of the assay: Antifungal activity against Candida krusei assessed as reduction in fungal cell growth incubated for 24 hrs by broth microdilution method.
For assay [5], the system named is Candida albicans. Put plainly: Antifungal activity against Candida albicans assessed as reduction in fungal cell growth incubated for 24 hrs by broth microdilution method.
Assay [6] relates to Candida tropicalis. Nature of the assay: Antifungal activity against Candida tropicalis assessed as reduction in fungal cell growth incubated for 24 hrs by broth microdilution method.
In a further assay the test system is Candida parapsilosis. Nature of the assay: Antifungal activity against Candida parapsilosis ATCC 22019 assessed as reduction in fungal cell growth incubated for 48 hrs by broth microdilution method. The conditions noted are these: Lodderomyces parapsilosis, ATCC 22019, 48 h.
Assay [7] has as its system Candida tropicalis. Put plainly: Antifungal activity against Candida tropicalis assessed as reduction in fungal cell growth incubated for 48 hrs by broth microdilution method.
For assay [8], the system named is Candida albicans. Nature of the assay: Antifungal activity against Candida albicans V-01-191A-261 assessed as reduction in fungal cell growth incubated for 48 hrs by broth microdilution method. The conditions noted are these: V-01-191A-261, 48 h.
In assay [9] the test system is Pichia kudriavzevii. Put plainly: Antifungal activity against Candida krusei assessed as reduction in fungal cell growth incubated for 48 hrs by broth microdilution method.
The subject of another assay is Cryptococcus neoformans. Nature of the assay: Antifungal activity against Cryptococcus neoformans LA314 assessed as reduction in fungal cell growth incubated for 48 hrs by broth microdilution method. The conditions noted are these: LA314, 48 h.
Assay [10] concerns Aspergillus niger. Put plainly: Antifungal activity against Aspergillus niger assessed as reduction in fungal cell growth incubated for 72 hrs by broth microdilution method.
Assay [11] deals with Nakaseomyces glabratus. Put plainly: Antifungal activity against Candida glabrata assessed as reduction in fungal cell growth incubated for 48 hrs by broth microdilution method.
Assay [12] concerns Aspergillus flavus. Put plainly: Antifungal activity against Aspergillus flavus assessed as reduction in fungal cell growth incubated for 24 and 72 hrs by cup plate method.
For assay [13], the system named is Candida albicans. Put plainly: Antifungal activity against Candida albicans assessed as reduction in fungal cell growth incubated for 24 and 72 hrs by cup plate method.
Assay [14] concerns Candida albicans. Put plainly: Antifungal activity against Candida albicans MTCC 227 assessed as reduction in fungal cell growth incubated for 24 and 48 hrs by broth microdilution method.
For assay [15], the system named is Nakaseomyces glabratus. Put plainly: Potency index, ratio for MIC of fluconazole to MIC of compound for antifungal activity against Candida glabrata NCIM 3236 assessed as reduction in fungal cell growth incubated for 24 hrs by broth microdilution method.
For assay [16], the system named is Candida tropicalis. Put plainly: Potency index, ratio for MIC of fluconazole to MIC of compound for Antifungal activity against Candida tropicalis NCIM 3110 assessed as reduction in fungal cell growth incubated for 24 hrs by broth microdilution method.
The test system of assay [17] is Candida albicans. Put plainly: Antifungal activity against Candida albicans MTCC 227 assessed as reduction in fungal cell growth incubated for 24 hrs by broth microdilution method. The conditions noted are these: MTCC 227, 24 h.
The subject of assay [18] is Candida tropicalis. Put plainly: Antifungal activity against Candida tropicalis NCIM 3110 assessed as reduction in fungal cell growth incubated for 48 hrs by broth microdilution method. The settings on record: NCIM 3110, 48 h.
In assay [19] the test system is Nakaseomyces glabratus. Put plainly: Antifungal activity against Candida glabrata NCIM 3236 assessed as reduction in fungal cell growth incubated for 24 hrs by broth microdilution method. The settings on record: NCIM 3236, 24 h.
Assay [20] concerns Aspergillus fumigatus. Put plainly: Antifungal activity against Aspergillus fumigatus NCIM 902 assessed as reduction in fungal cell growth incubated for 3 to 4 days by disk diffusion method.
The subject of a further assay is Talaromyces marneffei. Nature of the assay: Antifungal activity against Penicillium marneffei assessed as reduction in fungal cell growth incubated for 3 to 4 days by disk diffusion method. A general note: Agar diffusion results depend on both activity and mobility in agar.
For assay [21], the system named is Aspergillus flavus. Nature of the assay: Antifungal activity against Aspergillus flavus NCIM 524 assessed as reduction in fungal cell growth incubated for 3 to 4 days by disk diffusion method.
Assay [22] relates to Trichophyton mentagrophytes. Nature of the assay: Antifungal activity against Trichophyton mentagrophytes assessed as reduction in fungal cell growth incubated for 3 to 4 days by disk diffusion method.
The test system of assay [23] is Nakaseomyces glabratus. Nature of the assay: Antifungal activity against Candida glabrata ATCC 36583 by broth microdilution method.
The subject of assay [24] is Candida tropicalis. Put plainly: Antifungal activity against Candida tropicalis by broth microdilution method.
Assay [25] relates to Candida albicans. Put plainly: Antifungal activity against Candida albicans.
The subject of assay [26] is Aspergillus flavus. Nature of the assay: Antifungal activity against Aspergillus flavus.
Assay [27] deals with Aspergillus fumigatus. Put plainly: Antifungal activity against Aspergillus fumigatus.

Converted amounts (≈) assume the structure as drawn.

As for `COc1ccc(C2c3ccc4ccccc4c3Oc3[nH]c(=S)n4nnnc4c32)cc1` (configuration not stated), the MIC in the assay with Aspergillus niger [1] and with Candida albicans [2] was 50 to 400 µg/mL (≈ 121 to 967 µM) throughout.
For the compound `Fc1cc2nc(SCc3ccc(-c4ccccc4-c4nnnn4C(c4ccccc4)(c4ccccc4)c4ccccc4)cc3)[nH]c2cc1Oc1ccc(Cl)cc1`, the MIC in the assay on Nakaseomyces glabratus [3], in the assay on Pichia kudriavzevii [4], in the assay on Candida albicans [5] and with Candida tropicalis [6] was 16 µg/mL (≈ 20.7 µM) throughout.
Consider `C[C@@H](c1ncncc1F)[C@](O)(Cn1cncn1)c1ccc(F)cc1F` [VORICONAZOLE], for which the MIC with Candida parapsilosis, in the assay on Candida tropicalis [7], in the assay on Candida albicans [8], in the assay on Pichia kudriavzevii [9], in the assay with Cryptococcus neoformans and with Aspergillus niger [10] was 0.015 to 0.5 µg/mL (≈ 0.0429 to 1.43 µM) throughout. For the same compound, the MIC with Nakaseomyces glabratus [11] was in the range of 0.015 to 0.5 µg/mL (≈ 0.0429 to 1.43 µM).
As to `COC1=CC(=O)C[C@@H](C)[C@]12Oc1c(Cl)c(OC)cc(OC)c1C2=O` [GRISEOFULVIN], the MIC amounted to 10 µg/mL (≈ 28.3 µM) with Aspergillus flavus [12], 10 µg/mL (≈ 28.3 µM) in the assay on Candida albicans [13] and 500 µg/mL (≈ 1420 µM) with Candida albicans [14].
Turning to `O=[N+]([O-])c1cccc(C2c3ccc4ccccc4c3Oc3[nH]c(=S)n4nnnc4c32)c1` (configuration not stated), the MIC in the assay on Aspergillus niger [1] and with Candida albicans [2] was 50 to 400 µg/mL (≈ 117 to 934 µM) throughout.
Turning to `O=c1c(OCc2nnn[nH]2)c(-c2ccc(F)cc2)oc2ccc(Cl)cc12`, the Ratio in the assay on Nakaseomyces glabratus [15] and in the assay with Candida tropicalis [16] was 16 - 64 throughout. Also, the MIC in the assay on Candida albicans [17] was 12.5 to 25 µg/mL (≈ 33.5 to 67.1 µM); in the assay with Candida tropicalis [18], 12.5 to 50 µg/mL (≈ 33.5 to 134 µM); in the assay on Nakaseomyces glabratus [19] it was 12.5 to 50 µg/mL (≈ 33.5 to 134 µM).
Regarding `c1ccc(-n2nnnc2SCCCSc2nnnn2C2CC2)cc1`, the MIC (in the assay with Aspergillus fumigatus [20]; in the assay with Talaromyces marneffei; with Aspergillus flavus [21]; in assay [22]) was 6.25 to 50 µg/mL (≈ 17.3 to 139 µM) in each case.
Turning to `Cn1nnnc1SCC(=O)Nc1ccc(-c2nc3cc(Cl)c(Cl)cc3n2C)cc1`, the MIC in the assay with Nakaseomyces glabratus [23], against Candida tropicalis [24] and in the assay on Candida albicans [25] was 25 to 50 µg/mL (≈ 55.8 to 112 µM) each time.
As for `Cc1ccc2oc(-c3ccc(F)cc3)c(OCc3nnn[nH]3)c(=O)c2c1`, the Ratio in the assay with Nakaseomyces glabratus [15] and in the assay on Candida tropicalis [16] was 8 - 64 each time. The MIC in the assay on Candida albicans [17], with Candida tropicalis [18] and in the assay on Nakaseomyces glabratus [19] was 12.5 to 50 µg/mL (≈ 35.5 to 142 µM) each time.
For the compound `Cc1ccc(C2c3ccc4ccccc4c3Oc3[nH]c(=S)n4nnnc4c32)cc1` (configuration not stated), the MIC in the assay on Aspergillus niger [1] and in the assay with Candida albicans [2] was 50 to 400 µg/mL (≈ 126 to 1010 µM) in each case.
With `O=c1c(OCc2nnn[nH]2)c(-c2ccc(F)cc2)oc2c(Cl)cc(Cl)cc12`, the Ratio with Nakaseomyces glabratus [15] and in the assay with Candida tropicalis [16] was 8 - 64 throughout. Further, the minimal inhibitory concentration (MIC) in the assay with Candida albicans [17], in the assay with Candida tropicalis [18] and in the assay on Nakaseomyces glabratus [19] was 12.5 to 50 µg/mL (≈ 30.7 to 123 µM) in each case.
For the compound `Cc1cccc2c(=O)c(OCc3nnn[nH]3)c(-c3ccc(F)cc3)oc12`, the Ratio with Nakaseomyces glabratus [15] and with Candida tropicalis [16] was 8 - 64 in each case. The MIC in the assay with Candida albicans [17], in the assay on Candida tropicalis [18] and in the assay with Nakaseomyces glabratus [19] was 12.5 to 50 µg/mL (≈ 35.5 to 142 µM) in each case.
`CC[C@H]1O[C@@H](/C(C)=C/[C@H](C)/C=C/[C@@H]2[C@@H](C)[C@@H]2/C=C/[C@@H]2O[C@H](Cc3nn[nH]n3)C[C@H](N(C)C)[C@H]2O)CC=C1C`: the MIC in the assay with Aspergillus flavus [26] and in the assay with Aspergillus fumigatus [27] was 1.5 µg/mL (≈ 2.85 µM) each time.
`c1ccc(Cn2nnnc2SCCCSc2nnnn2-c2ccccc2)cc1`: the MIC (in the assay with Aspergillus fumigatus [20]; in the assay with Talaromyces marneffei; with Aspergillus flavus [21]; in assay [22]) was 6.25 µg/mL (≈ 15.2 µM) throughout.
On to `Fc1cc2[nH]c(SCc3ccc(-c4ccccc4-c4nnnn4C(c4ccccc4)(c4ccccc4)c4ccccc4)cc3)nc2cc1-n1cncn1`, for which the MIC with Nakaseomyces glabratus [3], with Pichia kudriavzevii [4], in the assay with Candida albicans [5] and in the assay with Candida tropicalis [6] was 4 to 8 µg/mL (≈ 5.62 to 11.2 µM) in each case.

The MIC is the lowest concentration found to suppress growth.
